Values after ≈ are worked out from the molar mass of the structure shown. Active and inactive are the calls of the source. No cut-off for these calls is given here.
Columns and labels:
[1] = system: Mycobacterium tuberculosis; format: functional, H37Rv ATCC 27294, THP-1; details: Mycobacterium tuberculosis, H37Rv ATCC 27294; read-out: MIC
[2] = Aqueous solubility of the compound in phosphate buffer at pH 7.4 after 24 hrs by UV-MS analysis; format: physicochemical
Cytochrome P450 3A4 = Cytochrome P450 3A4 (Homo sapiens, UniProt P08684); assay: Inhibition of human CYP3A4; format: ADME
Sequence of Cytochrome P450 3A4 (P08684 whole entry): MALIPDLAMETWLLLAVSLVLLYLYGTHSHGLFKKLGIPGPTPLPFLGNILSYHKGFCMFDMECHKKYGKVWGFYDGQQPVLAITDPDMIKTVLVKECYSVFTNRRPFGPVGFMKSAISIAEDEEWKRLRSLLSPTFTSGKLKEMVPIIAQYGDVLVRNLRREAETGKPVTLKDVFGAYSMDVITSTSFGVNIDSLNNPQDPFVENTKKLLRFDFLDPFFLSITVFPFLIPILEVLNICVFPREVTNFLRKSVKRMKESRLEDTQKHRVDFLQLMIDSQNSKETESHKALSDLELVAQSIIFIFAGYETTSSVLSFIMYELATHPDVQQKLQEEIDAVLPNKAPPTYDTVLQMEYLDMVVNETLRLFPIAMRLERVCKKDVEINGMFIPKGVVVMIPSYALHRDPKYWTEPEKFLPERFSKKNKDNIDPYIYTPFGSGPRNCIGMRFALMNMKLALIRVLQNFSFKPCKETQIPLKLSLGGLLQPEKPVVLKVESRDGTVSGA

[3] = Intrinsic clearance in mouse liver microsomes; format: ADME; details: read-out: CLH
[4] = AUC (infinity) in BALB/c mouse at 30 mg/kg, po administered as single dose; format: ADME, organism-based; parameters: time infinity, dose 30 mg/kg, route oral; details: plasma
Cytochrome P450 2C19 = Cytochrome P450 2C19 (Homo sapiens, UniProt P33261); assay: Inhibition of human CYP2C19; format: ADME
Sequence of Cytochrome P450 2C19 (P33261 whole entry): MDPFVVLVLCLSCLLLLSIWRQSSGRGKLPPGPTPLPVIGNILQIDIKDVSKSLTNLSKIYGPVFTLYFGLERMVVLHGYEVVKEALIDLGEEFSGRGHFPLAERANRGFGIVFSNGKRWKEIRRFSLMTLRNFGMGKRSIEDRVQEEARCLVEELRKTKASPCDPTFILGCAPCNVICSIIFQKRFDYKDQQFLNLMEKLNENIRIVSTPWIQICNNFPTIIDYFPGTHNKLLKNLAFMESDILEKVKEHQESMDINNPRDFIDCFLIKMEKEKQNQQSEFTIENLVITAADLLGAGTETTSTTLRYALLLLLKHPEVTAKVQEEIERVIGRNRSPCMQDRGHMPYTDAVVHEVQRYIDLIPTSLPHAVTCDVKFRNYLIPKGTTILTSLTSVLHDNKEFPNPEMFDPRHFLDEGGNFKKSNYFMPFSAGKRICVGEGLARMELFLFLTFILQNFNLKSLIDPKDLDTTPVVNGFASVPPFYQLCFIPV

Cytochrome P450 2C9 = Cytochrome P450 2C9 (Homo sapiens, UniProt P11712); assay: Inhibition of human CYP2C9; format: ADME
Sequence of Cytochrome P450 2C9 (P11712 whole entry): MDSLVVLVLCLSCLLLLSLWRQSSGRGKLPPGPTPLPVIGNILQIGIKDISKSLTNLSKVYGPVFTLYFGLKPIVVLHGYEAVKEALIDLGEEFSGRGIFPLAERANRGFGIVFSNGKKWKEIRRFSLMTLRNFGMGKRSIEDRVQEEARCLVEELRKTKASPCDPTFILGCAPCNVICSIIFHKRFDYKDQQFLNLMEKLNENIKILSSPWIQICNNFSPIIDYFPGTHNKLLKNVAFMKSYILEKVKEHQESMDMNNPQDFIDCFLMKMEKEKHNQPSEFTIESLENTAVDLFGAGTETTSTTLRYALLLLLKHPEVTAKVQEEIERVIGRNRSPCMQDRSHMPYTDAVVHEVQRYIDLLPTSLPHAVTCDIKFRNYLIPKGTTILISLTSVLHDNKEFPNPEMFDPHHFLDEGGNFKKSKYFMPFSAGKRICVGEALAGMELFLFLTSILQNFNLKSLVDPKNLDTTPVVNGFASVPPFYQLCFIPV

[5] = system: Mycobacterium tuberculosis; format: functional, organism-based; parameters: dose 100 mg/kg; details: H37Rv ATCC 27294, Lung, 100 mg/kg
[6] = Tmax in BALB/c mouse at 30 mg/kg, po administered as single dose; format: ADME, organism-based; parameters: dose 30 mg/kg, route oral; details: in vivo
[7] = Oral bioavailability in rat; format: ADME, organism-based; details: in vivo
Cytochrome P450 2D6 = Cytochrome P450 2D6 (Homo sapiens, UniProt P10635); assay: Inhibition of human CYP2D6; format: ADME
Sequence of Cytochrome P450 2D6 (P10635 whole entry): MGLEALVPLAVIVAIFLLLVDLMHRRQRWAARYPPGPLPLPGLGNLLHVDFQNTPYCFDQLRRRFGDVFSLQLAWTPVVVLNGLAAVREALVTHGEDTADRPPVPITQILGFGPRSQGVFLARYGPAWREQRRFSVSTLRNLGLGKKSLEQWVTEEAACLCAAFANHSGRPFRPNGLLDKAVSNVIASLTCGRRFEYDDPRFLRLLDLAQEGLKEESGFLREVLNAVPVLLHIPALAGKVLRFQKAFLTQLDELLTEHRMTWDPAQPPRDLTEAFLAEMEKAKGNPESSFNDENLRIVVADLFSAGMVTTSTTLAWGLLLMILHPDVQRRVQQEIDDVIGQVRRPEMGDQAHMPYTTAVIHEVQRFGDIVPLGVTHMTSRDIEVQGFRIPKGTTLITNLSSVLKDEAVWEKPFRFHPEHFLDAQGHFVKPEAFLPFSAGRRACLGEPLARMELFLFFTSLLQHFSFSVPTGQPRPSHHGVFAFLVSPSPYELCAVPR

[8] = target: Voltage-gated inwardly rectifying potassium channel KCNH2 (Homo sapiens, UniProt Q12809)
Sequence of Voltage-gated inwardly rectifying potassium channel KCNH2 (Q12809 whole entry): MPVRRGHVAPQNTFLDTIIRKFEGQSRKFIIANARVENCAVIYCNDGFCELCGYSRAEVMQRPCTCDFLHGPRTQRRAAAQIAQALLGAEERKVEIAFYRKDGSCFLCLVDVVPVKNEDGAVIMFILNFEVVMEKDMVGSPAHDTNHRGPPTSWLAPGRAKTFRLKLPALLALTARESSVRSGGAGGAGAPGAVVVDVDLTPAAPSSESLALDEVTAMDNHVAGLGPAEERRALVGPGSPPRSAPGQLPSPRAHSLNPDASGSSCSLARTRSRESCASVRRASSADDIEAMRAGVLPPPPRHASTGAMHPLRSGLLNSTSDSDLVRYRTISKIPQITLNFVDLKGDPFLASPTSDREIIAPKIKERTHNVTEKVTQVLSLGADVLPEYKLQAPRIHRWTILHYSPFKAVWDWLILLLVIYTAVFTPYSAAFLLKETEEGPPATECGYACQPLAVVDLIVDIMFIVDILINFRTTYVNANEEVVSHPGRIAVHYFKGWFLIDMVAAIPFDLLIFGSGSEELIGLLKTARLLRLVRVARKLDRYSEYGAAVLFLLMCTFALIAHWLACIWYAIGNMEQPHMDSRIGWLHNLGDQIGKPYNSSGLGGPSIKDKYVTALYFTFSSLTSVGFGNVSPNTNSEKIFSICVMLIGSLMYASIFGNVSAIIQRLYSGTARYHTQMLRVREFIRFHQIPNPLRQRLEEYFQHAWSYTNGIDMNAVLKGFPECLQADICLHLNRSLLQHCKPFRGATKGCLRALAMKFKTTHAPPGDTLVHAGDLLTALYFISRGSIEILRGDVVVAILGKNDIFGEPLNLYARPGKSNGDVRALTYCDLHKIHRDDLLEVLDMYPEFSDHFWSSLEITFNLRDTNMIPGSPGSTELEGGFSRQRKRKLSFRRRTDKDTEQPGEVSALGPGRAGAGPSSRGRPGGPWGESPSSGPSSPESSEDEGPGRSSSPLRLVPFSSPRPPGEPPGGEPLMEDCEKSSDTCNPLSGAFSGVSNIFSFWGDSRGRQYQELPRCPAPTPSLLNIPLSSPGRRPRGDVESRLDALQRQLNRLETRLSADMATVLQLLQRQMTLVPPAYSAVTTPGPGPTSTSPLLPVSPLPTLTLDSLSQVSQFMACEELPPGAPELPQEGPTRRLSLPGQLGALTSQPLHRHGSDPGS

[9] = Cmax in BALB/c mouse at 30 mg/kg, po administered as single dose; format: ADME, organism-based; parameters: dose 30 mg/kg, route oral; details: in vivo
[10] = Permeability across basolateral to apical side in human Caco2 cells; format: ADME, cell-based; details: Caco-2, read-out: permeability
[11] = Half life in BALB/c mouse at 30 mg/kg, po administered as single dose; format: ADME, organism-based; parameters: dose 30 mg/kg, route oral; details: in vivo
Cytochrome P450 1A2 = target: T1, Cytochrome P450 1A2 (Homo sapiens, UniProt P05177); assay: Inhibition of human CYP1A2; format: ADME
T1 sequence (P05177 whole entry): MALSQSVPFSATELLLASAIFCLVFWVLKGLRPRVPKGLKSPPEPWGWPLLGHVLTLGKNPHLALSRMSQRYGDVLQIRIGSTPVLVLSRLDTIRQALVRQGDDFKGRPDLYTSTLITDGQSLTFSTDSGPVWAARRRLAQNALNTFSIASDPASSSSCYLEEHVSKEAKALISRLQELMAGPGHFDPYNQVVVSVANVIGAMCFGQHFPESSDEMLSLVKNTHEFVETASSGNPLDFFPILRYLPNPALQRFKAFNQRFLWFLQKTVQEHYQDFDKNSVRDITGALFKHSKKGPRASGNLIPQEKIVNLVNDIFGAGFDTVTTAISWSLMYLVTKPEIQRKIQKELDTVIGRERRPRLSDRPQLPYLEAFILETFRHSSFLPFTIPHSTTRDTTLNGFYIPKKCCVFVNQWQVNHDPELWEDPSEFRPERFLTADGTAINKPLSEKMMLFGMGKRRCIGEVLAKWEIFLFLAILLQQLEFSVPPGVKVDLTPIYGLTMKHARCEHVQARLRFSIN

[12] = Unbound fraction in human plasma; format: ADME, cell-free
Phosphodiesterase 6 = assay: Inhibition of PDE6 (unknown origin); format: protein assay, Homo sapiens
Rattus norvegicus [13] = assay: (§1) AUC in Mycobacterium tuberculosis H37Rv ATCC 27294 infected Wistar rat infection model at 100 mg/kg, po; format: ADME, organism-based; parameters: dose 100 mg/kg, route oral; details: in vivo
Rattus norvegicus [14] = assay: T>MIC in Wistar rat chronically infected with Mycobacterium tuberculosis H37Rv ATCC 27294 at 100 mg/kg, po
[15] = Inhibition of Mycobacterium smegmatis thioredoxin 6xHis-tagged decaprenylphosphoryl-beta-D-ribose2'-epimerase 1 overexpressed in Escherichia coli rosetta cells using farnesyl-phosphoryl-beta-D-ribofuranose as substrate; parameters: species or system Mycolicibacterium smegmatis
[16] = Clearance in po dosed rat; format: ADME, organism-based; details: in vivo
[17] = Permeability across apical to basolateral side in human Caco2 cells; format: ADME, cell-based; details: Caco-2, read-out: permeability
[18] = system: Mycobacterium tuberculosis; assay: microbe, parasite or virus in culture; details: H37Rv ATCC 27294, 120 h
Description: Antimicrobial activity against Mycobacterium tuberculosis H37Rv ATCC 27294 assessed as growth inhibition after 5 days by microdilution method

[19] = Octanol-water partition coefficient, log D of the compound at pH 7.4 by shake flask method; format: physicochemical
[20] = Cmax in BALB/c mouse at 50 mg/kg, po administered as single dose; format: ADME, organism-based; parameters: dose 50 mg/kg, route oral; details: in vivo
[21] = Tmax in BALB/c mouse at 50 mg/kg, po administered as single dose; format: ADME, organism-based; parameters: dose 50 mg/kg, route oral; details: in vivo
[22] = AUC (infinity) in BALB/c mouse at 50 mg/kg, po administered as single dose; format: ADME, organism-based; parameters: dose 50 mg/kg, route oral, time infinity; details: plasma
[23] = Half life in BALB/c mouse at 50 mg/kg, po administered as single dose; format: ADME, organism-based; parameters: dose 50 mg/kg, route oral; details: in vivo
[24] = as §1; format: ADME, organism-based; parameters: dose 100 mg/kg, route oral; details: Wistar, in vivo

Compound COc1ccc2c(n1)c(C(=O)NCC1CC1)cn2Cc1ccc(C)cc1C has an MIC [1] greater than 100 µM.
Work on COc1ncnc(Cn2cc(C(=O)NCCF)c3ncc(C)cc32)c1C yielded a solubility at 24 h [2] of 4 µM (≈ 1.43 µg/mL), an IC50 (Cytochrome P450 3A4) greater than 50 µM and a microsomal CLint [3] of 107 µL/min/mg. The AUC(0-inf) [4] was 2 µM·h, the IC50 (Cytochrome P450 2C19) was greater than 50 µM and the IC50 (Cytochrome P450 2C9) was greater than 50 µM. For the same compound, the Activity [5] was “Active”, the Tmax [6] was 15 min and the bioavailability [7] was 80%. The IC50 (Cytochrome P450 2D6) was greater than 50 µM, the IC50 [8] was greater than 33 µM and the Cmax [9] was 5.24 µM. The Papp B→A [10] was 18 ×10⁻⁶ cm/s, the half-life [11] was 30 min and the MIC [1] was less than 0.39 µM. It also gave an IC50 (Cytochrome P450 1A2) greater than 50 µM, a fraction unbound [12] of 0.07 and an IC50 (Phosphodiesterase 6) of 1 µM. The AUC (Rattus norvegicus [13]) was 23 µM·h, the “T>MIC” value (Rattus norvegicus [14]) was 10 h and the IC50 [15] was 0.003 µM.
Cc1cnc2c(C(=O)NCCO)cn(Cc3ncnc(OC(F)F)c3C)c2c1 gave a solubility at 24 h [2] of 68 µM (≈ 26.6 µg/mL), an IC50 (Cytochrome P450 3A4) greater than 50 µM and a microsomal CLint [3] of 26 µL/min/mg. For the same compound, the IC50 (Cytochrome P450 2C19) was greater than 50 µM, the IC50 (Cytochrome P450 2C9) was greater than 50 µM and the CL/F [16] was 48 mL/min/kg. It also gave a bioavailability [7] of 64%, an IC50 (Cytochrome P450 2D6) greater than 50 µM and a Papp A→B [17] of 13 ×10⁻⁶ cm/s. For the same compound, the Papp B→A [10] was 23 ×10⁻⁶ cm/s, the MIC [18] was 0.78 µM (≈ 0.305 µg/mL) and the MIC [1] was less than 0.39 µM. It also gave an IC50 (Cytochrome P450 1A2) greater than 50 µM, a fraction unbound [12] of 0.3 and an IC50 (Phosphodiesterase 6) greater than 100 µM. The IC50 [15] was 0.021 µM and the logD [19] was 2.
COc1cnc2c(C(=O)NCC(F)F)cn(Cc3ncnc(OC)c3C)c2c1 gave a microsomal CLint [3] of 106 µL/min/mg, an MIC [1] of less than 0.39 µM and an IC50 [15] of 0.009 µM. It also gave a logD [19] of 2.8.
With COc1cnc2c(C(=O)NCC(F)F)cn(Cc3ncnc(N(C)C)c3C)c2c1 the microsomal CLint [3] was greater than 130 µL/min/mg, the MIC [1] was less than 0.39 µM and the IC50 [15] was 0.003 µM. The logD [19] was 2.5.
COc1ncnc(Cn2cc(-c3cnn(C(F)F)c3)c3ncc(C)cc32)c1C gave an MIC [1] of less than 0.39 µM and an IC50 [15] of 0.019 µM.
Compound COc1ncnc(Cn2cc(C(=O)NCCF)c3ncc(Br)cc32)c1C has an MIC [1] of 1.56 µM (≈ 0.659 µg/mL), an IC50 [15] of 0.022 µM and a logD [19] of 2.4.
Compound C[C@H]1COC2(CCN(c3nc(=O)c4cc(C(F)(F)F)cc([N+](=O)[O-])c4s3)CC2)O1 [BTZ-043] has an MIC [18] of 0.0015 µM (≈ 0.000647 µg/mL).
Compound Cc1c(Cn2cc(C(=O)NCCF)c3ncccc32)ncnc1N(C)C has an IC50 (Phosphodiesterase 6) greater than 100 µM and an IC50 [15] of 0.02 µM.
Compound COc1ncnc(Cn2cc(C(=O)NCCO)c3ncc(C)cc32)c1C [TBA-7371] has a Cmax [20] of 73 µM, an IC50 (Cytochrome P450 3A4) greater than 50 µM and an IC50 (Cytochrome P450 2C19) greater than 50 µM. The Tmax [21] was 15 min, the IC50 (Cytochrome P450 2C9) was greater than 50 µM and the CL/F [16] was 27 mL/min/kg. The bioavailability [7] was 100%, the IC50 (Cytochrome P450 2D6) was greater than 50 µM and the IC50 [8] was greater than 33 µM. For the same compound, the AUC(0-inf) [22] was 62 µM·h, the IC50 (Cytochrome P450 1A2) was greater than 50 µM and the half-life [23] was 42 min. It also gave an IC50 [15] of 0.01 µM.
Work on COc1ncnc(Cn2cc(C(=O)NCCF)c3ncc(C(F)(F)F)cc32)c1C yielded an MIC [1] greater than 200 µM and an IC50 [15] of 0.2 µM.
For CO[C@H]1/C=C/O[C@@]2(C)Oc3c(C)c(O)c4c(O)c(cc(O)c4c3C2=O)NC(=O)/C(C)=C\C=C\[C@H](C)[C@H](O)[C@@H](C)[C@@H](O)[C@@H](C)[C@H](OC(C)=O)[C@@H]1C [RIFAMYCIN], the MIC [18] was 0.004 µM (≈ 0.00279 µg/mL).
For COc1cnc2c(C(=O)NCCF)cn(Cc3ncnc(OC)c3C)c2c1, the microsomal CLint [3] was 129 µL/min/mg, the MIC [1] was less than 0.39 µM and the IC50 [15] was 0.013 µM. It also gave a logD [19] of 2.5.
For COc1cnc2c(C(=O)NCC(F)F)cn(Cc3ncnc(OC(F)F)c3C)c2c1, the MIC [1] was less than 0.39 µM, the IC50 [15] was 0.005 µM and the logD [19] was 2.4.
Compound COc1c(N2C[C@@H]3CCCN[C@@H]3C2)c(F)cc2c(=O)c(C(=O)O)cn(C3CC3)c12 [MOXIFLOXACIN] has an MIC [18] of 0.125 µM (≈ 0.0502 µg/mL).
With COc1ncnc(Cn2cc(C(=O)NCC(F)F)c3ncc(C)cc32)c1C the solubility at 24 h [2] was 3 µM (≈ 1.13 µg/mL), the IC50 (Cytochrome P450 3A4) was greater than 50 µM and the microsomal CLint [3] was 77 µL/min/mg. The IC50 (Cytochrome P450 2C19) was greater than 50 µM, the IC50 (Cytochrome P450 2C9) was greater than 50 µM and the Activity [5] was “Active”. For the same compound, the IC50 (Cytochrome P450 2D6) was greater than 50 µM, the IC50 [8] was greater than 33 µM and the Papp A→B [17] was 24 ×10⁻⁶ cm/s. For the same compound, the Papp B→A [10] was 9 ×10⁻⁶ cm/s, the MIC [18] was less than 0.39 µM and the MIC [1] was less than 0.39 µM. The IC50 (Cytochrome P450 1A2) was greater than 50 µM, the fraction unbound [12] was 0.05 and the IC50 (Phosphodiesterase 6) was greater than 10 µM. The AUC [24] was 23 µM·h, the “T>MIC” value (Rattus norvegicus [14]) was 10 h and the IC50 [15] was less than 0.005 µM. For the same compound, the logD [19] was 2.9.
